Laboratory results from ChEMBL document CHEMBL5029147 (J Med Chem, 2021).
Activity calls are given as the source filed them. No cut-off for these calls is given here.

How the values were obtained:
[1] = Drug metabolism in human MCF7 cells assessed as intracellular hydroxy-PTX metabolite formation at 1 uM measured after 24 hrs by LC-MS/MS-MRM analysis; type: ADME, cell-based; conditions: mcf7, 24 h
[2] = system: MCF7; test: Effect on CYP2C8 expression in human MCF7 cells at 0.5 to 1 uM incubated for 24 hrs by western blot analysis; type: functional, cell-based; conditions: dose 0.5-1 µM
[3] = system: MCF7; test: Effect on BCRP expression in human MCF7 cells at 0.5 to 1 uM incubated for 24 hrs by western blot analysis; type: functional, cell-based; conditions: dose 0.5-1 µM
[4] = Drug metabolism in human MCF7 cells assessed as intracellular hydroxy-PTX metabolite formation at 0.2 to 1 uM measured after 24 hrs by HPLC-MS/MS-MRM analysis; type: ADME, cell-based; conditions: mcf7, 24 h, dose 0.2-1 µM
[5] = Drug uptake in human MCF7 cells at 0.2 to 1 uM measured after 24 hrs by HPLC-MS/MS-MRM analysis; type: ADME, cell-based; conditions: mcf7, 24 h, dose 0.2-1 µM
[6] = Drug metabolism in human MCF7 cells assessed as decline in intracellular hydroxy-PTX metabolite level at 1 uM measured after 24 hrs in presence of 50 to 100 uM photoCORM delivered CO by LC-MS/MS-MRM analysis; type: ADME, cell-based; conditions: mcf7, 24 h
[7] = Drug uptake in human MCF7 cells at 1 uM measured after 24 hrs in presence of 50 to 100 uM photoCORM delivered CO by LC-MS/MS-MRM analysis; type: ADME, cell-based; conditions: mcf7, 24 h
[8] = Drug uptake in human MCF7 cells at 1 uM measured after 24 hrs in presence of 100 uM photoCORM delivered CO by LC-MS/MS-MRM analysis; type: ADME, cell-based; conditions: mcf7, 24 h
[9] = Drug uptake in human MCF7 cells at 1 uM measured after 24 hrs in presence of 20 uM chloramphenicol by LC-MS/MS-MRM analysis; type: ADME, cell-based; conditions: mcf7, 24 h
[10] = system: MDA-MB-231; test: Cytotoxicity against human MDA-MB-231 cells assessed as reduction in cell viability incubated for 24 hrs in presence of chloramphenicol by MTT assay; type: functional, cell-based
[11] = system: MDA-MB-231; test: Cytotoxicity against human MDA-MB-231 cells assessed as reduction in cell viability at < 0.5 uM incubated for 24 hrs in presence of 20 uM chloramphenicol by MTT assay; type: functional, cell-based; conditions: dose microM <0.5, time 24.0 hrs
[12] = system: HepG2; test: Cytotoxicity against human HepG2 cells assessed as reduction in cell viability incubated for 24 hrs in presence of chloramphenicol by MTT assay; type: functional, cell-based
[13] = Drug uptake in human HepG2 cells at 1 to 2 uM measured after 24 hrs in presence of photoCORM delivered CO by LC-MS/MS-MRM analysis; type: ADME, cell-based; conditions: hepg2, 24 h, dose 1-2 µM
[14] = Drug metabolism in human MDA-MB-231 cells assessed as intracellular hydroxy-PTX metabolite formation measured after 24 hrs by LC-MS/MS-MRM analysis; type: ADME, cell-based; conditions: mda-mb-231, 24 h

Drug metabolism [1]: 1 fmol/µg
Drug metabolism [4]: Metabolite_Detected
Drug uptake [5]: Active
Drug metabolism [6]: Metabolite_Notdetected
Drug uptake [7]: Not Active
Drug uptake [8]: Not Active
Drug uptake [9]: Not Active
Drug uptake [13]: Active
Drug metabolism [14]: Metabolite_Notdetected
Compound: CC(=O)O[C@H]1C(=O)[C@@]2(C)[C@H]([C@H](OC(=O)c3ccccc3)[C@]3(O)C[C@H](OC(=O)[C@H](O)[C@@H](NC(=O)c4ccccc4)c4ccccc4)C(C)=C1C3(C)C)[C@]1(OC(C)=O)CO[C@@H]1C[C@@H]2O [PACLITAXEL]
Activity [2]: inactive
Activity [3]: inactive
Activity [10]: Active
Activity [11]: Active
Activity [12]: Active
